Test results taken from ChEMBL document CHEMBL1129054, “Conformationally constrained analogues of diacylglycerol. 13. Protein kinase C ligands based on templates derived from 2,3-dideoxy-L-erythro(threo)-hexono-1,4-lactone and 2-deoxyapiolactone” (J Med Chem, 1996).

Molecular target: Protein kinase C alpha type (Homo sapiens, UniProt P17252)
Test: Displacement of [3H-20] phorbol 12,13-dibutyrate(PDBU) from recombinant Protein kinase C alpha

Row | SMILES | Ki
1 | CCCCCCCCCCCCCCOC(=O)CC1(CCO)COC(=O)C1 (single isomer, unassigned) | 24.1 µM
2 | CCCCCCCCCCCCCC(=O)O[C@@H](CO)[C@@H]1CCC(=O)O1 | 1.07 µM
3 | CCCCCCCCCCCCCCOC(=O)C[C@@]1(CCO)COC(=O)C1 | 18.4 µM
4 | CCCCCCCCCCCCCCOC(=O)C[C@]1(CCO)COC(=O)C1 | 10.4 µM
5 | CCCCCCCCCCCCCCOC(=O)C[C@@]1(CO)COC(=O)C1 | 16.9 µM
6 | CCCCCCCCCCCCCC(=O)O[C@@H](CO)[C@H]1CCC(=O)O1 | 28 µM
